Among the data in article PMC11397727, “Fast Screening of Tyrosinase Inhibitors in Coreopsis tinctoria Nutt. by Ligand Fishing Based on Paper-Immobilized Tyrosinase” (Molecules, 2024) are inhibition values, retold here.

For the assay, the target named is T1, Mushroom Tyrosinase (TYR) (Agaricus bisporus, UniProt C7FF04).
T1 construct: gene PPO3
The experiment in a line: colorimetric L-Dopa oxidation assay, single-concentration inhibition at […]; also retrieved by ligand fishing on paper-immobilized tyrosinase. In kind it is biochemical.

T1 sequence (C7FF04 2-392): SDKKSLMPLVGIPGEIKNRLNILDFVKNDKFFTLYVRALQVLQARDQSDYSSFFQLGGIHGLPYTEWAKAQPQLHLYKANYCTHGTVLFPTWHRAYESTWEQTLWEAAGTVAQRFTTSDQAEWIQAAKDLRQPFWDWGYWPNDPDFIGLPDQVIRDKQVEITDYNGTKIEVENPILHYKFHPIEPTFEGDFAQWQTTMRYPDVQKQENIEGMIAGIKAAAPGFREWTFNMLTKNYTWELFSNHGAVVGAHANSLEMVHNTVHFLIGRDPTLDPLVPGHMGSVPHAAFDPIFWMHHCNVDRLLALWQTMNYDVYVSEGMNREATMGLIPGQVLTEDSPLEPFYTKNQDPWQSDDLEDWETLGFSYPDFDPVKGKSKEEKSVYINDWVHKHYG

Molecule `O=C(/C=C/c1ccc(O)c(O)c1)c1ccc(O[C@@H]2O[C@H](CO)[C@@H](O)[C@H](O)[C@H]2O)c(O)c1O` [compound 2, marein] returned an inhibition at 25 µM of 29.4%.

Broadly, the inhibition is the share of the control response that was lost under treatment. High values mean a response far below the control, low ones a response near the control.
